This is an account of results in ChEMBL document CHEMBL3297659, “Discovery, isolation, and structure elucidation of dretamycin” (J Nat Prod, 2014).

As usually defined, the MIC is the lowest concentration that inhibits growth of the organism.

Molecules are shown by their SMILES. Active and inactive are the calls of the source. The rule behind the calls is not given here.

In data set [1] the test system is Candida albicans. The experiment in a line: Growth stimulation in Candida albicans expressing DIP5 heterozygous mutant. It is filed as functional, organism-based.
Data set [2] concerns Candida albicans. The experiment in a line: Antifungal activity against Candida albicans expressing DRE-2 heterozygous mutant. It is filed as functional, organism-based.
Data set [3] has as its system Candida albicans. Put plainly: Antifungal activity against Candida albicans expressing DRE-2 heterozygous mutant assessed as clear zone of inhibition by agar diffusion method. Type of data set: functional, organism-based. (In general: A growth-free zone around the sample is the usual read-out of agar diffusion tests.)
Data set [4] concerns Candida albicans. The experiment in a line: Antifungal activity against wild-type Candida albicans assessed as hazy zone of inhibition by agar diffusion assay. Type of data set: functional, organism-based.
The test system of a further data set is Saccharomyces cerevisiae. The experiment in a line: Antifungal activity against Saccharomyces cerevisiae. Type of data set: functional.
Another data set deals with Aspergillus fumigatus. The experiment in a line: Antifungal activity against Aspergillus fumigatus. It is filed as functional.
Data set [5] is described as follows: Stability in aqueous solution at below pH 7.0. Type of data set: physicochemical. Particulars: buffer.
The next data set concerns Candida. Put plainly: Antifungal activity against Candida spp. Type of data set: functional.

As to `NC(=O)C1=CN(O)C(C(=O)O)C1` (stereo not drawn) [listing 1 of 2 here], the result with Candida albicans [1] and in the data set on Candida albicans [2] was Active. Moreover, the “growth inhibition (GI)” value with Candida albicans [3] and in the data set on Candida albicans [4] was “Active” each time.

For `NC(=O)C1=CN(O)C(C(=O)[O-])C1.[K+]` (stereo not drawn), the MIC against Saccharomyces cerevisiae and against Aspergillus fumigatus was more than 32 µg/mL in each case.

As to `NC(=O)C1=CN(O)C(C(=O)O)C1` (stereo not drawn) [listing 2 of 2 here], the Stability entry in data set [5] is on record as “Unstable”. The compound also displayed an MIC against Candida of more than 8 µg/mL.
